Experiments:
[1] = system: whole brain GABA; assay: Whole brain GABA concentrations after GABA-T inhibitor administration; assay type: in vivo, mice; details: 15 minutes after administration of optimum doses
[2] = system: male CDl albino mice; assay: Spontaneous locomotor activity of mice (actimeter, Event-Counter); assay type: in vivo
Protocol: (§1) In determining efficacy for the above-stated uses of gamma-aminobutyric acid transaminase inhibitors standard laboratory models are employed wherein effects on phencyclidine-induced locomotor activity are determined. One such test employed is: male CDl albino mice (weighing 30-40 grams) (Charles River, St. Aubin-les-Elbeuf, France) kept under standardized conditions (22°C, 60% relative humidity; 12 hours light - 12 hours dark cycle; water and standard diet ad libitum). Locomotor activity is determined using the Event-Counter of Columbus Instr. Corp. (Columbus, Ohio). The animals (six per cage) are brought into a room which is equipped with an actimeter, and allowed to adapt to the new environment for several hours. Phencyclidine is given 5 hours after administration of the GABA-T inhibitors. The dose of phencyclidine used is 5 µg/g in 10 µl of physiological saline, i.p. Immediately after phencyclidine administration (or of the same volume of physiological saline in the case of controls), the animals are placed individually into standard plastic cages (23 cm × 17 cm), and the actimeter is set into action. Total time of observation: 35 minutes. The scores of 5 minute intervals are integrated and stored by the computer.
(§2) In order to test "direct" effects of the drugs, locomotor activity was determined, starting 10 minutes after intraperitoneal administration of 150 mg/kg (4S)-allenylGABA, and 400 mg/kg vigabatrin, respectively.
(§3) The locomotor behavior of mice with elevated brain GABA concentrations was tested as follows: vigabatrin and (4S)-allenylGABA were administered intraperitoneally in a dose-range from 100-800 mg/kg and 50-300 mg/kg, respectively. Within this dose range whole brain GABA concentrations, as observed 5 hours post injection were between 2.5 and 10 µmol/g.

[3] = system: male CDl albino mice; assay: Phencyclidine (PCP)-induced locomotor activity of mice (actimeter, Event-Counter); assay type: in vivo; details: for direct effect on phencyclidine-induced locomotor behavior (in words): 10 minutes (15 minutes) after i.p. 150 mg/kg (4S)-allenylGABA or 400 mg/kg vigabatrin (Table I)
Protocol: as §1, §2, §3

Compound: C=C=C[C@@H](N)CCC(=O)O [(4S)-allenylGABA, (S)-4-amino-5,6-heptadienoic acid]
- brain GABA concentrations [1]: below 3 µmol/g
- Spontaneous locomotor activity, Mean scores ± S.D. ([2]; 50 mg/kg i.p., 5 h pretreatment): 306.244 ( 6)
- Spontaneous locomotor activity, Mean scores ± S.D. ([2]; 100 mg/kg i.p., 5 h pretreatment): 406.221 ( 6)
- Spontaneous locomotor activity, Mean scores ± S.D. ([2]; 150 mg/kg i.p., 5 h pretreatment): 315.304 ( 6)
- Spontaneous locomotor activity, Mean scores ± S.D. ([2]; 150 mg/kg i.p., given 10 minutes before physiol. saline): 688 ± 308 ( 6)
- Spontaneous locomotor activity, Mean scores ± S.D. ([2]; 300 mg/kg i.p., 5 h pretreatment): 445.420 ( 6)
- sedation / motor activity at very high dose ([2]; 600 mg/kg (not shown)): sedated
- effect on spontaneous locomotor activity (in words) ([2]; dose range from 50 to 300 mg/kg, 5 h pretreatment (Table III)): did not affect
- PCP-induced locomotor activity, Mean scores ± S.D. ([3]; 150 mg/kg i.p., given 10 minutes before phencyclidine (5 mg/kg)): 2680 ± 1040 (11)
- direct effect on phencyclidine-induced locomotor behavior (in words) [3]: absence of an effect
- minimal effective dose ([3]; Mus musculus, 5 h, read-out: dose giving a statistically significant difference to mice receiving only phencyclidine): ≥ 100 mg/kg
- phencyclidine-induced hypermotility reduced by ([3]; highest dose given (300 mg/kg) i.p. 5 h before phencyclidine): 75%

Compound: C=C[C@H](N)CCC(=O)O [Vigabatrin, (R)S-4-aminohex-5-enoic acid]
- brain GABA concentrations [1]: below 3 µmol/g
- Spontaneous locomotor activity, Mean scores ± S.D. ([2]; 200 mg/kg i.p., 5 h pretreatment): 505 ± 344 (6)
- Spontaneous locomotor activity, Mean scores ± S.D. ([2]; 400 mg/kg i.p., 5 h pretreatment): 471 ± 306 (12)
- Spontaneous locomotor activity, Mean scores ± S.D. ([2]; 400 mg/kg i.p., given 10 minutes before physiol. saline, 35 minutes observation): 528 ± 239 ( 6)
- Spontaneous locomotor activity, Mean scores ± S.D. ([2]; 600 mg/kg i.p., 5 h pretreatment): 361 ± 139 (6)
- Spontaneous locomotor activity, Mean scores ± S.D. ([2]; 700 mg/kg i.p., 5 h pretreatment): 441 ± 298 (6)
- Spontaneous locomotor activity, Mean scores ± S.D. ([2]; 800 mg/kg i.p., 5 h pretreatment): 435 ± 275 (6)
- effect on spontaneous locomotor activity (in words) ([2]; 100-800 mg/kg i.p., 5 h pretreatment (Table II)): not significantly affected
- PCP-induced locomotor activity, Mean scores ± S.D. ([3]; 100 mg/kg i.p. 5 h before phencyclidine (5 mg/kg)): 2360 ± 1100 (12)
- PCP-induced locomotor activity, Mean scores ± S.D. ([3]; 200 mg/kg i.p. 5 h before phencyclidine (5 mg/kg)): 1970 ± 730 (12)
- locomotor activity, lowest value, as % of that of phencyclidine-treated controls ([3]; 400 mg/kg i.p. 5 h before phencyclidine): 55%
- PCP-induced locomotor activity, Mean scores ± S.D. ([3]; 400 mg/kg i.p. 5 h before phencyclidine (5 mg/kg)): 1690 ± 1385 (12)
- PCP-induced locomotor activity, Mean scores ± S.D. ([3]; 400 mg/kg i.p., given 10 minutes before phencyclidine (5 mg/kg)): 2460 ± 1220 (11)
- PCP-induced locomotor activity, Mean scores ± S.D. ([3]; 600 mg/kg i.p. 5 h before phencyclidine (5 mg/kg)): 2180 ± 410 (12)
- PCP-induced locomotor activity, Mean scores ± S.D. ([3]; 700 mg/kg i.p. 5 h before phencyclidine (5 mg/kg)): 1780 ± 1080 (12)
- PCP-induced locomotor activity, Mean scores ± S.D. ([3]; 800 mg/kg i.p. 5 h before phencyclidine (5 mg/kg)): 2100 ± 1780 (12)
- direct effect on phencyclidine-induced locomotor behavior (in words) [3]: absence of an effect

— patent EP0509180A1, “Use of GABA-T inhibitors for the treatment of schizophrenia and phencyclidine intoxication” (MERRELL DOW PHARMACEUTICALS INC., priority 1991, dated 1992)
